According to patent US20240226228A1, “ANTIMICROBIAL PEPTOID HAVING IMPROVED SELECTIVITY AND ANTIMICROBIAL COMPOSITION COMPRISING SAME” (priority 2021, published 2024):
Where a SMILES comes first, the peptide text is derived from it. Where no end group is shown, it is not given here. [ ]: non-standard residue; d: D form. Gly(N(CH2)2(3-indolyl)) = O=C(O)CNCCc1c[nH]c2ccccc12; Gly(N-CH2CH2-imidazol-4-yl) = O=C(O)CNCCc1c[nH]cn1; Nspe = C[C@H](NCC(=O)O)c1ccccc1; Nlys = NCCCCNCC(=O)O

Tests used:
red blood cells = experiment: Hemolysis assay; assay type: cell-based, Sprague-Dawley mouse
Protocol: To confirm cytotoxicity by the hemolytic activity of each peptoid synthesized in Example 1, hemolysis analysis was performed. The used blood was collected from a 13-week-old male Sprague-Dawley […] in a tube containing 158 UPS sodium heparin for preventing coagulation, and centrifuged at 4° C. for 10 minutes at 1,000 rpm. Afterward, the plasma was carefully removed, red blood cells were washed with phosphate-buffered saline (PBS: a mixed solution of 35 mM phosphate-buffered solution/150 mM NaCl, pH 7.4) three times and centrifuged at 1,000 rpm for 10 minutes. A 10% (v/v) red blood cell solution diluted in PBS was dispensed at 150 μL into a 96-well plate (microtiter plate), a peptoid solution was added at 50 μL, and 1% Triton X-100 was added. Afterward, the red blood cells were incubated at 37° C. for 1 hour, and the incubated 96-well plate was centrifuged at 1,000 rpm for 15 minutes. A supernatant was obtained and transferred to a new 96-well plate at 150 μL, and absorbance was measured using a spectrophotometer at 540 nm. Percent hemolysis may be calculated by the following Equation 1, and the corresponding results are shown in Tables 11 to 13. % Hemolysis=(A−C)/(B−C)×100 [Equation 1] In Equation 1, A is the absorbance of the peptoid solution at 540 nm, B is the absorbance of the 0.1% Triton X-100 at 540 nm, and C is the absorbance of the PBS solution at 540 nm.

E. coli ATCC25922 = conditions: for antimicrobial activity (in words): E. coli and S. aureus, compared to Peptoid 1, parent peptoid or TFA salt as stated; for antimicrobial activity against E. coli (in words): compared to Peptoid 1
Protocol: To measure the antimicrobial activity of the peptoids synthesized in Example 1, an E. coli ATCC25922 strain as gram-negative bacteria and an S. aureus KCTC25923 strain as gram-positive bacteris, were treated with the peptoids, followed by measuring the minimum inhibitory concentration (MIC). Peptoids 1 and 2 are antimicrobial peptoids known in the art, and used as controls for comparing antimicrobial activity with a novel peptoid.
Specifically, the S. aureus KCTC25923 or E. coli ATCC25922 strain was inoculated into a Mueller Hinton Broth (MHB2) liquid medium in which cations had been adjusted in the medium, cultured at 37° C. for 18 hours, subcultured, and then incubated for 4 hours. Afterward, for each bacterial strain, an optical density (OD, 0.001) was adjusted so that the bacterial count became 2×10^5 to 5×10^5 colony-forming units (CFU) per mL, which was then diluted with a MHB2 liquid medium containing 0.02% bovine serum albumin and 0.001% acetic acid, and dispensed at 100 μL into a 96-well microplate. Using sterile water, a peptoid stock 40 times stronger than a concentration to be tested was subjected to two-fold serial dilution and assessed at six different concentrations, and the maximum value of the peptoid concentrations was 25 μM. Subsequently, the plate was incubated at 37° C. for 24 hours. Afterward, optical density (OD) values at 600 nm were measured using a microplate reader (Bio-Rad).
Each MIC value was determined as the average value of a value obtained through three independent experiments.
Referring to Table 22, to measure the antimicrobial activity of the peptoids synthesized in Example 3, an MIC was measured by treating gram-negative bacteria, that is, the E. coli ATCC25922 strain, and gram-positive bacteria, that is, the S. aureus ATCC25923 strain, with the peptoids. Here, Peptoid 1 is a conventionally known antimicrobial peptoid, and Omiganan is a derivative of indolicidin, which is an antimicrobial peptide, under clinical development, and was used as a control for comparing antimicrobial activity with the novel peptoid.

Compound | cytotoxicity against red blood cells / hemolysis (in words) (red blood cells) | antimicrobial activity (in words) (E. coli ATCC25922) | Hmax (100 μM) (red blood cells) | MIC E. coli ATCC25922 (E. coli ATCC25922; ATCC25922) | antimicrobial activity against E. coli (in words) (E. coli ATCC25922)
C[C@@H](c1ccccc1)N(CC(=O)N(CCc1c[nH]cn1)CC(=O)N(CCc1c[nH]c2ccccc12)CC(=O)N(CCc1c[nH]c2ccccc12)CC(N)=O)C(=O)CN(CCCCN)C(=O)CN(CCCCN)C(=O)CN(C(=O)CN(C(=O)CN(CCCCN)C(=O)CN(C(=O)CN(C(=O)CNCCCCN)[C@@H](C)c1ccccc1)[C@@H](C)c1ccccc1)[C@@H](C)c1ccccc1)[C@@H](C)c1ccccc1 [Peptoid 77, H-NLys-Nspe-Nspe-NLys-Nspe-Nspe-NLys-NLys-Nspe-NHis-NhTrp-NhTrp-NH2] (H-[Nlys][Nspe][Nspe][Nlys][Nspe][Nspe][Nlys][Nlys][Nspe][Gly(N-CH2CH2-imidazol-4-yl)][Gly(N(CH2)2(3-indolyl))][Gly(N(CH2)2(3-indolyl))]-NH2) | improved toxicity | reduced antimicrobial activity | – | – | –
C[C@@H](c1ccccc1)N(CC(=O)N(CCCCN)CC(=O)N(CCc1c[nH]c2ccccc12)CC(=O)N(CCc1c[nH]c2ccccc12)CC(N)=O)C(=O)CN(CCCCN)C(=O)CN(CCCCN)C(=O)CN(C(=O)CN(C(=O)CN(CCc1c[nH]cn1)C(=O)CN(C(=O)CN(C(=O)CNCCCCN)[C@@H](C)c1ccccc1)[C@@H](C)c1ccccc1)[C@@H](C)c1ccccc1)[C@@H](C)c1ccccc1 [Peptoid 80, H-NLys-Nspe-Nspe-NHis-Nspe-Nspe-NLys-NLys-Nspe-NLys-NhTrp-NhTrp-NH2] (H-[Nlys][Nspe][Nspe][Gly(N-CH2CH2-imidazol-4-yl)][Nspe][Nspe][Nlys][Nlys][Nspe][Nlys][Gly(N(CH2)2(3-indolyl))][Gly(N(CH2)2(3-indolyl))]-NH2) | improved toxicity | reduced antimicrobial activity | – | – | –
C[C@@H](c1ccccc1)N(CC(N)=O)C(=O)CN(CCc1c[nH]cn1)C(=O)CN(CCCCN)C(=O)CN(C(=O)CN(C(=O)CN(CCCCN)C(=O)CN(C(=O)CN(C(=O)CN(CCCCN)C(=O)CN(CCc1c[nH]c2ccccc12)C(=O)CN(CCc1c[nH]c2ccccc12)C(=O)CNCCCCN)[C@@H](C)c1ccccc1)[C@@H](C)c1ccccc1)[C@@H](C)c1ccccc1)[C@@H](C)c1ccccc1 [Peptoid 76, H-NLys-NhTrp-NhTrp-NLys-Nspe-Nspe-NLys-Nspe-Nspe-NLys-NHis-Nspe-NH2] (H-[Nlys][Gly(N(CH2)2(3-indolyl))][Gly(N(CH2)2(3-indolyl))][Nlys][Nspe][Nspe][Nlys][Nspe][Nspe][Nlys][Gly(N-CH2CH2-imidazol-4-yl)][Nspe]-NH2) | improved in toxicity | retained antimicrobial activity | – | – | –
C[C@@H](c1ccccc1)N(CC(N)=O)C(=O)CN(CCCCN)C(=O)CN(CCCCN)C(=O)CN(C(=O)CN(C(=O)CN(CCCCN)C(=O)CN(C(=O)CN(C(=O)CN(CCCCN)C(=O)CN(CCc1c[nH]c2ccccc12)C(=O)CN(CCc1c[nH]c2ccccc12)C(=O)CNCCc1c[nH]cn1)[C@@H](C)c1ccccc1)[C@@H](C)c1ccccc1)[C@@H](C)c1ccccc1)[C@@H](C)c1ccccc1 [Peptoid 72, H-NHis-NhTrp-NhTrp-NLys-Nspe-Nspe-NLys-Nspe-Nspe-NLys-NLys-Nspe-NH2] (H-[Gly(N-CH2CH2-imidazol-4-yl)][Gly(N(CH2)2(3-indolyl))][Gly(N(CH2)2(3-indolyl))][Nlys][Nspe][Nspe][Nlys][Nspe][Nspe][Nlys][Nlys][Nspe]-NH2) | improved in toxicity | retained antimicrobial activity | – | – | –
ILRWPWWPWRRK-NH2 [Omiganan, reference compound] | – | – | 0 | 12.5~25 μM | –
C[C@@H](c1ccccc1)N(CC(N)=O)C(=O)CN(CCCCN)C(=O)CN(CCCCN)C(=O)CN(C(=O)CN(C(=O)CN(CCCCN)C(=O)CN(C(=O)CN(C(=O)CN(CCc1c[nH]cn1)C(=O)CN(CCc1c[nH]c2ccccc12)C(=O)CN(CCc1c[nH]c2ccccc12)C(=O)CNCCCCN)[C@@H](C)c1ccccc1)[C@@H](C)c1ccccc1)[C@@H](C)c1ccccc1)[C@@H](C)c1ccccc1 [Peptoid 73, H-NLys-NhTrp-NhTrp-NHis-Nspe-Nspe-NLys-Nspe-Nspe-NLys-NLys-Nspe-NH2] (H-[Nlys][Gly(N(CH2)2(3-indolyl))][Gly(N(CH2)2(3-indolyl))][Gly(N-CH2CH2-imidazol-4-yl)][Nspe][Nspe][Nlys][Nspe][Nspe][Nlys][Nlys][Nspe]-NH2) | improved in toxicity | retained antimicrobial activity | – | – | –
C[C@@H](c1ccccc1)N(CC(N)=O)C(=O)CN(C(=O)CN(CCCCN)C(=O)CN(C(=O)CN(C(=O)CN(CCCCN)C(=O)CN(C(=O)CN(C(=O)CN(CCCCN)C(=O)CN(C(=O)CN(C(=O)CN(CCCCN)C(=O)CN(CCc1c[nH]c2ccccc12)C(=O)CNCCc1c[nH]c2ccccc12)[C@@H](C)c1ccccc1)[C@@H](C)c1ccccc1)[C@@H](C)c1ccccc1)[C@@H](C)c1ccccc1)[C@@H](C)c1ccccc1)[C@@H](C)c1ccccc1)[C@@H](C)c1ccccc1 [Peptoid 6, H-NhTrp-NhTrp-NLys-Nspe-Nspe-NLys-Nspe-Nspe-NLys-Nspe-Nspe-NLys-Nspe-Nspe-NH2] | – | – | – | – | lost antimicrobial activities against E. coli
C[C@@H](c1ccccc1)N(CC(=O)N(CCCCN)CC(=O)N(CC(=O)N(CC(=O)N(CCCCN)CC(=O)N(CC(=O)N(CC(=O)N(CCCCN)CC(=O)N(CC(=O)N(CC(=O)N(CCc1c[nH]c2ccccc12)CC(N)=O)[C@@H](C)c1ccccc1)[C@@H](C)c1ccccc1)[C@@H](C)c1ccccc1)[C@@H](C)c1ccccc1)[C@@H](C)c1ccccc1)[C@@H](C)c1ccccc1)C(=O)CN(C(=O)CN(CCCCN)C(=O)CNCCc1c[nH]c2ccccc12)[C@@H](C)c1ccccc1 [Peptoid 5, H-NhTrp-NLys-Nspe-Nspe-NLys-Nspe-Nspe-NLys-Nspe-Nspe-NLys-Nspe-Nspe-NhTrp-NH2] (H-[Gly(N(CH2)2(3-indolyl))][Nlys][Nspe][Nspe][Nlys][Nspe][Nspe][Nlys][Nspe][Nspe][Nlys][Nspe][Nspe][Gly(N(CH2)2(3-indolyl))]-NH2) | – | – | – | – | lost antimicrobial activities against E. coli
C[C@@H](c1ccccc1)N(CC(=O)N(CCCCN)CC(=O)N(CCc1c[nH]c2ccccc12)CC(=O)N(CCc1c[nH]c2ccccc12)CC(N)=O)C(=O)CN(CCc1c[nH]cn1)C(=O)CN(CCCCN)C(=O)CN(C(=O)CN(C(=O)CN(CCCCN)C(=O)CN(C(=O)CN(C(=O)CNCCCCN)[C@@H](C)c1ccccc1)[C@@H](C)c1ccccc1)[C@@H](C)c1ccccc1)[C@@H](C)c1ccccc1 [Peptoid 78, H-NLys-Nspe-Nspe-NLys-Nspe-Nspe-NLys-NHis-Nspe-NLys-NhTrp-NhTrp-NH2] (H-[Nlys][Nspe][Nspe][Nlys][Nspe][Nspe][Nlys][Gly(N-CH2CH2-imidazol-4-yl)][Nspe][Nlys][Gly(N(CH2)2(3-indolyl))][Gly(N(CH2)2(3-indolyl))]-NH2) | improved in toxicity | retained antimicrobial activity | – | – | –
C[C@@H](c1ccccc1)N(CC(=O)N(CCCCN)CC(=O)N(CCc1c[nH]c2ccccc12)CC(=O)N(CCc1c[nH]c2ccccc12)CC(N)=O)C(=O)CN(CCCCN)C(=O)CN(CCCCN)C(=O)CN(C(=O)CN(C(=O)CN(CCCCN)C(=O)CN(C(=O)CN(C(=O)CNCCc1c[nH]cn1)[C@@H](C)c1ccccc1)[C@@H](C)c1ccccc1)[C@@H](C)c1ccccc1)[C@@H](C)c1ccccc1 [Peptoid 81, H-NHis-Nspe-Nspe-NLys-Nspe-Nspe-NLys-NLys-Nspe-NLys-NhTrp-NhTrp-NH2] (H-[Gly(N-CH2CH2-imidazol-4-yl)][Nspe][Nspe][Nlys][Nspe][Nspe][Nlys][Nlys][Nspe][Nlys][Gly(N(CH2)2(3-indolyl))][Gly(N(CH2)2(3-indolyl))]-NH2) | improved in toxicity | retained antimicrobial activity | – | – | –
